US20210292340A1, “CELL NECROSIS INHIBITOR, PREPARATION METHOD THEREFOR AND USE THEREOF” (SHANGHAI INSTITUTE OF ORGANIC CHEMISTRY, CHINESE ACADEMY OF …, priority 2018, published 2021)
Read-outs that look alike come from different tables or passages of the source.

How the values were obtained:
[1] = tested on: TNF-α induced shock; experiment: TNF-α induced shock test in mice; assay type: in vivo, C57BL/6 mice; conditions: 10, 20 and 30 mg/kg, given 15 min before TNF-α; body temperature 0-6 h
Description: C57BL/6 mice were specially sterilized, and the animals are randomly grouped according to their body weight. 0.15 mg/mL TNF-α was prepared. Each mouse was injected with 200 μL TNF-alpha (30 μg per mouse) through the tail vein. 15 min before TNF-α induction, the drug was administered according to the body weight. At 0 h, 1 h, 2 h, 4 h, and 6 h, the body temperature of the mouse was detected by a small animal thermometer and recorded, and the state of the animal was observed during the test. After 6 h, the mice were euthanized with CO2. The experimental data was plotted by Graph Pad Prism 7, and expressed as mean±standard error (Mean±SEM). The area under the clinical scoring curve was analyzed by one-way ANOVA. p<0.05 is considered to have significant differences as compared to the control group.

[2] = tested on: Jurkat (FADD−/−) cells; experiment: Inhibition of TNF-induced programmed Jurkat (FADD−/−) cell necrosis (Cell Titer-Glo); assay type: cell-based, human; conditions: Homo sapiens, Jurkat, 20 h, read-out: Cellular IC50 (M) Jurkat (FADD−/−)
Summary of the method: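 FADD-knockout Jurkat cells (5×10^5/mL) preincubated with compound, then given TNF (final 10 ng/mL) for 20 h at 37 °C. ATP measured by Cell Titer-Glo luminescence, normalised to untreated DMSO wells as 100% viability; IC50 from duplicate wells.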

[3] = target: T1, human RIP1 (Homo sapiens, UniProt Q13546); experiment: Inhibition of ADP-Glo RIP1 kinase activity; assay type: biochemical
T1 construct: made in house; host or cells: Sf-9 insect cells
T1 sequence (Q13546 1-671): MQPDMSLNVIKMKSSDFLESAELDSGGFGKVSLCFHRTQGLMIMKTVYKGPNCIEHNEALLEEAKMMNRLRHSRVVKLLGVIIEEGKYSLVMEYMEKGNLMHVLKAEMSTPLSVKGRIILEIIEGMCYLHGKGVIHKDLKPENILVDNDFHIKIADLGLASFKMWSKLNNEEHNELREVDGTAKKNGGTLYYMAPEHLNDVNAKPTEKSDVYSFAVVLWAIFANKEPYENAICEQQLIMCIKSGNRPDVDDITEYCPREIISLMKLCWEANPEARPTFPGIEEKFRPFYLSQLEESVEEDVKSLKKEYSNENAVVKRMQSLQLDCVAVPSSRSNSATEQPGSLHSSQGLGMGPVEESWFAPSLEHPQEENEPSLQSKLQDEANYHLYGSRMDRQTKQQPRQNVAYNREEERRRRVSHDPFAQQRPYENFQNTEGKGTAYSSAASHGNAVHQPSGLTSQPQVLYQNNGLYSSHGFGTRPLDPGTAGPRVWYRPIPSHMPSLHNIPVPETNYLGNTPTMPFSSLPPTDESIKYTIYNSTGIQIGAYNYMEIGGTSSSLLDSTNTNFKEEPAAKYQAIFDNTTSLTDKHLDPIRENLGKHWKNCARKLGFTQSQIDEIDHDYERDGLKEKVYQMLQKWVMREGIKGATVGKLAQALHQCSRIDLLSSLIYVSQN
Description: The human RIP1 gene was transduced into Sf-9 insect cells, and the RIP1 protein was purified by Ni+ affinity chromatography and then by S-200 molecular sieve to remove the protein multimers. The obtained RIP1 protein was stored at −70° C., and the activity of the RIP1 protein in catalyzing autophosphorylation was detected by the ADP-Glo™ Kinase Activity Assay Kit (Promega) and the inhibitory activity of the drug against the RIP1 kinase was determined.
100 nL of the compound was transferred to a 384-well assay plate. Two replicate wells were set for each concentration of each drug.
The RIP1 enzyme solution and ATP solution were formulated in an assay buffer (containing 50 mM HEPES pH 7.5, 30 mM MgCl2, 50 mM NaCl, 1 mM DTT, 0.02% CHAPS, and 0.5 mg/ml BSA). Then, 5 μL of the RIP1 enzyme solution (final concentration 50 nM) was added to the assay plate and incubated at room temperature for 1 h. 5 μL of the ATP solution (final concentration 10 μM) was added to the assay plate, and incubate at room temperature for 4 h. Then 5 μL of ADP-Glo reagent was added to the assay plate, and incubated at room temperature for 60 min. 5 μL of a kinase assay solution was added to the assay plate, and incubated at room temperature for 30 min. After readout on Envision, the inhibition rate in each well was calculated from the full-activity well and the background well, and the Ki of the compound was calculated by GraphPad Prism 7 software (using the Morrision equation to fit the curve and calculate the Ki).

[4] = Plasma concentration in mice after a single oral administration; assay type: in vivo; conditions: single oral dose 10 mg/kg, 0.25-24 h
Description: An oral solution containing Compound RIP1-034 of the present application was freshly prepared with an aqueous solution containing 0.5% MC/0.25% Tween 80 on the day of administration. All animals were fasted overnight before administration, and were allowed to have free food intake 4 hours after administration. Each group included three mice, and each mouse was orally administered a single dose of 10 mg/kg on the day of the experiment. About 30 μL of whole blood was collected from the dorsal vein of the foot at 0.25, 0.5, 1, 2, 4, 6, 8, and 24 hours after administration, transferred to an anticoagulation tube containing heparin sodium and mixed thoroughly by inverting for several times. The collected blood sample was centrifuged at 4° C. and 4000 g for 5 min to collect plasma, and the plasma sample was dispensed into clean polyethylene microcentrifuge tubes, and then stored in a freezer at −75±15° C. until analysis. The actual administration volume was calculated based on the animal's body weight. All samples were analyzed by LC-MS/MS, and the concentration of the drug to be tested in the samples was determined by the standard curve method. The average plasma concentration in a group of three mice at each measurement time point after a single oral administration is shown in FIG. 3.

[5] = TNF 10 ng/mL, intracellular ATP level

Row | SMILES | decrease in body temperature due to systemic inflammatory response caused by TNF-α [1] | IC50 [2, 5] | Ki [3] | plasma concentration after oral administration [4] | IC50 [2]
1 | CN1C(=O)[C@@H](NC(=O)c2nnc(Cc3ccccc3)[nH]2)COc2cc3[nH]nc(Cl)c3cc21 [RIP1-034] | effectively inhibits the decrease in body temperature | 8.9e-10 M | 6.35 nM | can reach a desirable plasma concentration | –
2 | CN1C(=O)[C@@H](NC(=O)c2ncn(Cc3ccccc3)n2)COc2cc3occc3cc21 [RIP1-119] | – | 5.81e-10 M | 19.1 nM | – | –
3 | CN1C(=O)[C@@H](NC(=O)c2cn(Cc3ccccc3)cn2)COc2ccc3cnccc3c21 [RIP1-109] | – | 7.22e-10 M | 6.85 nM | – | –
4 | CN1C(=O)[C@@H](NC(=O)c2cc(Cc3ccccc3)on2)COc2cc3[nH]nc(Cl)c3cc21 [RIP1-033] | – | 6.8e-10 M | 10.8 nM | – | –
5 | CN1C(=O)[C@@H](NC(=O)c2nnc(Cc3ccccc3)o2)COc2cc3[nH]nnc3cc21 [RIP1-153] | – | – | 12.8 nM | – | 1.52e-09 M
6 | CN1C(=O)[C@@H](NC(=O)c2nnn(Cc3ccccc3)n2)COc2cc3occc3cc21 [RIP1-122] | – | 2.26e-10 M | 15.6 nM | – | –
7 | CN1C(=O)[C@@H](NC(=O)c2nnc(Cc3ccccc3)[nH]2)COc2cc3nccnc3cc21 [RIP1-135] | – | 4.25e-09 M | 21.5 nM | – | –
8 | CN1C(=O)[C@@H](NC(=O)c2cn(Cc3ccccc3)nn2)COc2cc3occc3cc21 [RIP1-121] | – | – | 32.7 nM | – | 1.37e-08 M
9 | Cc1nc2cc3c(cc2[nH]1)OC[C@H](NC(=O)c1cc(Cc2ccccc2)on1)C(=O)N3C [RIP1-061] | – | 5.86e-09 M | 44 nM | – | –
10 | CN1C(=O)[C@@H](NC(=O)c2ncn(Cc3ccccc3)n2)COc2cc3[nH]nnc3cc21 [RIP1-136] | – | 9.34e-09 M | 17.8 nM | – | –
11 | COc1ncnc2cc3c(cc12)N(C)C(=O)[C@@H](NC(=O)c1n[nH]c(Cc2ccccc2)n1)CO3 [RIP1-146] | – | 1.85e-09 M | 13.2 nM | – | –
12 | CN1C(=O)[C@@H](NC(=O)c2cn(Cc3ccccc3)nn2)COc2cc3[nH]nc(Cl)c3cc21 [RIP1-035] | – | 1.94e-09 M | 7.8 nM | – | –
